Tests used:
Anopheles sp. [1] = assay: Insecticidal in Anopheles sp. assessed as mortality rate fed with blood of compound treated dog at 10 to 2500 microg/kg observed after 48 hrs relative to control; type: functional, organism-based; conditions: dose 10-2500 µg/kg
Anopheles sp. [2] = assay: Insecticidal in Anopheles sp. infected with Plasmodium falciparum gametocytes assessed as survival fed with compound treated bovine blood at 200 microg/kg feeding at 2 weeks after injection; type: functional, organism-based; conditions: dose 200.0 µg/kg
Anopheles sp. [3] = assay: Insecticidal in Anopheles sp. assessed as percentage survival fed with blood of compound treated human at 250 microg/kg administered once and observed for 3 days relative to control; type: functional, organism-based; conditions: dose 250.0 µg/kg, time 3.0 day
Anopheles sp. [4] = assay: Insecticidal in Anopheles sp. infected with Plasmodium falciparum gametocytes assessed as mortality fed with compound treated bovine blood at 200 microg/kg observed within 5.5 days feeding at 15 days post treatment relative to control; type: functional, organism-based; conditions: dose 200.0 µg/kg, time 5.5 day
Anopheles arabiensis [5] = assay: Insecticidal in Anopheles arabiensis assessed as mean survival fed with blood of compound treated human at 12 mg, administered as a single dose observed at 2 days post treatment; type: functional, organism-based; conditions: time 2.0 day
Anopheles arabiensis [6] = assay: Insecticidal in Anopheles arabiensis assessed as lethal concentration membrane-fed with compound treated bovine blood; type: functional
Anopheles stephensi = assay: Insecticidal in Anopheles stephensi assessed as mortality rate fed with blood of compound treated rabbits at 0.34 mg/kg, sc 4 to 6 days post-injection relative to control; type: functional, organism-based; conditions: time 4-6 day
Aedes aegypti = assay: Insecticidal in Aedes aegypti larvae measured after 48 hrs; type: functional
Anopheles sp. [7] = assay: Insecticidal in Anopheles sp. assessed as mortality fed with compound treated pig blood at 600 microg/kg observed within 2 to 4 days feeding upto 8 days after drug administration relative to control; type: functional, organism-based; conditions: dose 600.0 µg/kg, time 2-4 day
Anopheles gambiae = assay: Insecticidal in Anopheles gambiae assessed as median lethal concentration fed with compound treated bovine blood observed after 9 days; type: functional, organism-based; conditions: time 9.0 day
Anopheles sp. [8] = assay: Insecticidal in Anopheles sp. assessed as lethal concentration fed with compound treated human blood administered as a single dose at 10 microg/ml fed at 4 hrs post treatment; type: functional, organism-based; conditions: dose 10.0 µg/ml
Anopheles sp. [9] = assay: Insecticidal in Anopheles sp. assessed as mortality rate membrane-fed with blood of compound treated mouse at 600 microg/kg observed within 6 days relative to control; type: functional, organism-based; conditions: dose 600.0 µg/kg, time 6.0 day

**Q.** What does the source list for IVERMECTIN?
**A.** mortality (Anopheles sp. [1]): 90%; Survival (Anopheles sp. [2]): 2 days; Survival (Anopheles sp. [3]): 20%; mortality (Anopheles sp. [4]): 100%; Survival (Anopheles arabiensis [5]): 2.1 days; LC50 (Anopheles arabiensis [6]): 7.79 ppb; mortality (Anopheles stephensi): 93%; LC50 (Aedes aegypti): 23.4 ppb; mortality (Anopheles sp. [7]): 100%; LC50 (Anopheles gambiae): 19.8 ppb; LC5 (Anopheles sp. [8]): 18.3 ng/mL; mortality (Anopheles sp. [9]): 44%
